In patent US20090221684A1, “Molecules for Gene Delivery and Gene Therapy, and Methods of Use Thereof” (priority 2005, published 2009):
Like-named read-outs stand apart in the source and are kept apart here.

Assays:
CHO cells [1] = assay: Cytotoxicity, formazan-based proliferation assay and total protein assay, CHO cells; settings: for cytotoxicity (cell proliferation/number as percentage of non-treated cells): 24 hours after addition
Procedure: Cytotocixity experiments were also performed with CHO and L6 cells using a formazan-based proliferation assay and a total protein assay. The cells were seeded onto a 96-multiwell plate with an appropriate density of 1×10^4 cells per well. […] After another 24 hours, cell proliferation/number was determined and expressed as a percentage of non-treated cells.
Cytotoxicity was assessed using both a formazan-based proliferation assay (CellTiter 96 AQueous One Solution Cell Proliferation Assay kit, Promega) and a total protein-based assay (Pierce). Briefly, CHO cells were seeded onto a multi-well microtiter plate with an appropriate density, depending on the size of the well (e.g., 1×10^4 cells per well in a 96-well plate). After 48 h, MTS substrate was added to each well and the plate and incubated for 4 h at 37° C. in a humidified, 5% CO2 incubator. The amount of soluble formazan produced by cellular reduction of the substrates MTS was recorded at 490 nm using a multi-well plate reader. For the total protein-based proliferation assay, cells were lysed at the same time when transfection efficiency was assayed. A 5 μL of lysates were transferred to a separate multi-well plate. Total protein contents were assessed using the Coomassie Blue protein kit (Pierce, Rockford, Ill.) following the manufacturer protocol. Negative and positive controls were non-treated cells and commercial lipids treated cells, respectively. The proliferation results were expressed as percentages of non-treated cells.

GAPDH = assay: siRNA delivery, KDalert GAPDH gene knockdown assay; format: cell-based; settings: 48 hr after siRNA transfection
Procedure: Trypsine adherent cells and dilute in normal growth medium to 1×10^5 cells per ml. […] Dilute RNA in serum free medium. Mix the diluted RNA with the transfectant reagent, incubate for 10 min at room temperature and dispense into a culture plate. Depending on the experimental design, the ration of lipid, siRNA, pH, and incubation time was varied. Overlay cell suspension onto the transfection mixture. Incubate at 37° C. and 5% CO2. Assay for gene knockdown were assessed after 48 h depending on the experimental protocol.
The gene knockdown assay performed was KDalert™ GAPDH Assay (Ambion) following the manufacturer protocol. Briefly, 48 hr after siRNA transfection, aspirate the culture medium from transfected cells. Add 200 μl KDalert Lysis Buffer to each sample well. Incubate at 4° C. for 20 min to lyse the cells. Pipet the cell lysate up and down 4-5 times to homogenize the lysate. Transfer 10 μl of each lysate or GAPDH Enzyme dilution (including the GAPDH Working Stock) to the wells of a clean 96 well plate. Working quickly, add 90 μl of KDalert Master Mix to each sample using a multi-channel pipettor to dispense the KDalert Master Mix quickly. Measure the increase in fluorescence of the samples at room temp. Using the reagent above we saw greater than 80% knockdown of the protein.

[2] = test system: Chinese hamster ovarian (CHO) cells; assay: β-galactosidase reporter gene transfection in CHO cells; format: cell-based
Procedure: The reporter gene was first mixed with the lipids in potassium phosphate buffer (PBS) at room temperature. We tested two different lipid/DNA ratios (5:1; and 20:1) while keeping the zwitterionic/DOTAP ratio constant at 1:1. Next, the lipid/DNA complexes were added to the cells. The amount of DNA used was the same as used in the naked DNA control (no lipid), and the negative control was compound 4 without DNA. After incubation at 37° C. and 5% CO2 for 2 h, the medium was removed and fresh growth medium was added. Transfection efficiencies were assessed after 48 h using the β-galactosidase enzyme assay in conjunction with a standard curve. The efficiency of each transfection was calculated as β-gal activity normalized to total protein.
Transfection assays were performed using the well established beta-galactosidase transfection assay. In these experiments the beta-galactosidase gene is transfected into cells. Next, the expressed enzyme then cleaves a chemiluminescent reporter that is detected. […]
Chinese hamster ovarian cells (CHO, ATCC, Manassas, Va.) were cultured in complete F12K media (ATCC) containing 10% fetal calf serum (Sigma) and 1% penicillin and streptomycin (500 IU/ml and 5000 μg/ml, respectively, Mediatech, Herndon, Va.) at 37° C. in 5% CO2 with humidity. […] Transfection efficiencies were assessed 24 h to 48 h post transfection depending on the experimental design. […]

CHO cells [3] = assay: Gene transfection efficiency in a cell population by optical microscopy; format: cell-based, Chinese hamster; settings: reporter gene β-gal
Description: Importantly, more than 70% of the cells had been transfected as compared to less than 40% when using other transfection reagents.

calf thymus DNA = assay: Ethidium bromide displacement fluorescence assay; format: binding; settings: fluorescence intensity as a function of vector/DNA charge ratio
Procedure: The propensity of the lipids to bind DNA was measured via an ethidium bromide displacement fluorescence assay. This assay entailed measuring the reduction of the fluorescence intensity of the DNA-intercalated ethidium bromide, as this fluorescent probe is displaced by the cationic amphiphile. […] The results obtained with DOTAP, DOTAP/DOPE, and DOPC/DOTAP are consistent with previous reports. A 1:1 assembly is formed between the lipids and DNA.
Binding studies were carried out by competitive displacement fluorimetric assay with DNA-bound ethidium bromide. This assay involves the addition of aliquots of the compound to a 3 mL solution of EthBr (1.3 μM) and calf thymus DNA (3 μM) in buffer (100 mM NaCl, 100 mM Tris, pH 7.4) with the decrease of fluorescence (λexc=546 nm, λem=600 nm; 1 cm path length glass cuvette, slit width 3 nm) recorded after 5 min equilibrium time following each addition.

[4] = Differential scanning calorimeter (DSC) trace of hydrated amphiphile; format: physicochemical
L6 cells = assay: Cytotoxicity, formazan-based proliferation assay and total protein assay, L6 cells; format: cell-based; settings: 24 hours after addition
[5] = Liposome average diameter by dynamic light scattering; format: physicochemical; settings: extruded through 50 nm membrane, Tris buffer pH 7.4
Description: (§1) It is likely that 4 will form bilayers. […] After 20 extrusions, a homogeneous liposome solution was observed.

[6] = Transmission electron micrographs (TEM) of vesicles; format: physicochemical
Description: as §1

Procedure for esterase: Next, we prepared vesicles of 4, 4/DOTAP, and DOPC/DOTAP. A chloroform solution containing 4, 4/DOTAP, or DOPC/DOTAP was added to a pear shaped flask and the solution was evaporated under vacuum leaving a thin film deposited onto the flask wall. One mL of Tris buffer (100 mM Tris, 100 mM NaCl, pH 7.4) was then added and the film was peeled off by vortexing. The milky aqueous suspension was extruded through a polycarbonate membrane (50 nm) using an Aventi polar lipids mini-extruder. After 20 extrusions, a homogeneous liposome solution was observed.

1,2-Di-tetradecanoyl-3-Lys-Trp-Lys-rac-glycerol
cell cytotoxicity (CHO cells [1]; CHO cells, Example 16, MTS and total protein assays): minimal cell cytotoxicity | knockdown of the protein (GAPDH): greater than 80% | transfection capability ([2]; CHO cells, Example 15, β-gal reporter gene): high transfection capability | cells transfected (CHO cells [3]): more than 70%

NCCOP(=O)(O)OCC(COC(=O)CCCCCCCCCCC(=O)OCc1ccccc1)OC(=O)CCCCCCCCCCC(=O)OCc1ccccc1 (racemic) [1,2-Di-dodecanedioyl benzyl ester-3-phosphoethanolamine-rac-glycerol]
cell cytotoxicity (CHO cells [1]): minimal cell cytotoxicity

C[N+](C)(C)CCOP(=O)([O-])OCC(COC(=O)CCCCCCCCCCC(=O)OCc1ccccc1)OC(=O)CCCCCCCCCCC(=O)OCc1ccccc1 (racemic) [Compound 4, 1,2-Di-dodecanedioyl benzyl ester-3-phosphocholine-rac-glycerol]
displacement of DNA-intercalated ethidium bromide (fluorescence intensity) (calf thymus DNA): do not displace EtBr | phase-transition temperature [4]: ~44 °C | cytotoxicity (cell proliferation/number as percentage of non-treated cells) (CHO cells [1]; CHO cells): None of the amphiphiles showed significant cytotoxicity | cytotoxicity (cell proliferation/number as percentage of non-treated cells) (L6 cells): None of the amphiphiles showed significant cytotoxicity | time to loss of 4 (esterase): four | time to complete hydrolysis of 4 to yield 5 (esterase; esterase added to liposomes prepared from 4, HPLC): 8 h | transfection efficiency (β-gal activity normalized to total protein) ([2]; assessed after 48 h, result in words): does not transfect DNA | average diameter of the liposomes [5]: 79 nm | average size of vesicular organizations [6]: about 100 nM

CCCCCCCC/C=C\CCCCCCCC(=O)OC[C@H](COP(=O)([O-])OCC[N+](C)(C)C)OC(=O)CCCCCCC/C=C\CCCCCCCC [DOPC, dioleylphosphatidyl choline]
displacement of DNA-intercalated ethidium bromide (fluorescence intensity) (calf thymus DNA): do not displace EtBr

CCCCCCCC/C=C\CCCCCCCC(=O)OC[C@H](COP(=O)(O)OCCN)OC(=O)CCCCCCC/C=C\CCCCCCCC [DOPE, dioleylphosphatidyl ethanolamine]
displacement of DNA-intercalated ethidium bromide (fluorescence intensity) (calf thymus DNA): do not displace EtBr

CCCCCCCC/C=C\CCCCCCCC(=O)OCC(C[N+](C)(C)C)OC(=O)CCCCCCC/C=C\CCCCCCCC (stereo not shown) [DOTAP, 1,2-dioleoyloxy-3-(trimethylammonio)-propane, reference compound]
displacement of DNA-intercalated ethidium bromide (fluorescence intensity) (calf thymus DNA): fluorescence intensity decreases | cytotoxicity (cell proliferation/number as percentage of non-treated cells) (CHO cells [1]; CHO cells): None of the amphiphiles showed significant cytotoxicity | cytotoxicity (cell proliferation/number as percentage of non-treated cells) (L6 cells): None of the amphiphiles showed significant cytotoxicity
